Reference: patent US10266490B2, “Radioprotector compounds” (GEORGETOWN UNIVERSITY, priority 2012, dated 2019)

Key:
[1] = tested on: cultured cells (e.g., fibroblasts and epithelial cells); assay: Radiation protection of cultured cells (clonogenic survival, various cell types); format: cell-based; conditions: for radiation protection relative to DIM: cultured cells
From the text: DIM, a metabolite of indole-3-carbinol and a proposed […], is a potent radiation protector in cultured cells and in rodents (mice and rats). The preparation of DIM that was used for most experiments was a microencapsulated form of DIM produced by BioResponse Nutrients (Boulder, Colo.). This microencapsulated form of DIM is designed with specific excipients (e.g., alpha-tocopherol succinate and phosphatidylcholine) to provide enhanced absorption and, therefore, enhanced bioavailability.
(§1) Following the indicated treatment(s), subconfluent proliferating cells were irradiated with different doses of ^137Cs γ-rays, harvested using trypsin, and plated at different densities in the absence or presence of DIM (as indicated) for colony formation (clonogenic survival) assays, as described in Zhang et al., Radiat Res, 161:667-674 (2004). Values of surviving fraction are means±SEMs of triplicate plates.
Novel compounds were synthesized, which we have tested for their ability to protect cells against radiation in cultured cells. […] None of these compounds are predicted to be free-radical scavengers or to be genotoxic. For reference, clonogenic radiation survival curves of cultured human mammary epithelial cells treated without or with DIM are shown in FIG. 6, panels A and B. In these studies, human mammary epithelial cells at about 70-80% of confluency were treated with DIM (0.3 μM) or vehicle ([…]) for 24 hours. The cells were then irradiated using different doses of ^137Cs gamma rays, harvested, plated at different densities in the presence of DIM (0.3 μM) or vehicle, respectively, incubated for 14 days, and then counted for colony formation. In FIG. 6, panels A and B, the clonogenic survival curves are shown using non-tumorigenic human mammary epithelial cell lines Hs5788st (panel B) or 184A1 (panel A). All cell survival values are means±SEMs of three replicate dishes.

[2] = tested on: Hs578Bst human mammary epithelial cells; assay: Clonogenic survival after radiation, Hs578Bst cells; format: cell-based; conditions: single dose of radiation (8-Gy); different concentrations
From the text: as §1
It was next tested whether DIM could protect cultured cells against radiation using clonogenic survival (colony formation) assays. Cells were exposed to DIM (0.3 μM) for 24-hr, irradiated, and harvested for colony formation assays. […]
Novel compounds were synthesized, which we have tested for their ability to protect cells against radiation in cultured cells. […] The cells were then irradiated using different doses of ^137Cs gamma rays, harvested, plated at different densities in the presence of DIM (0.3 μM) or vehicle, respectively, incubated for 14 days, and then counted for colony formation. […]
Cells at about 70-80% confluency were treated with vehicle (DMSO) or with the indicated compound (1 μM) for 24 hours, irradiated using different doses of ^137Cs gamma rays, harvested, plated at different densities in the presence of the compound (0.3 μM) or vehicle, respectively, incubated for 14 days, and then counted for colony formation. […]

[3] = tested on: ATM; assay: Western blot of ATM signaling, 184A1 cells; format: cell-based, human; conditions: KU55933 10 μM
Method: FIG. 7A contains Western blots of subconfluent proliferating 184A1 human mammary epithelial cells exposed to DIM (0.3 μM) for different time intervals. Phosphorylated or total levels of ATM and of several different ATM substrate proteins were determined, as indicated. As a negative control, cells were treated with a selective inhibitor of ATM kinase activity (KU55933). FIG. 7B contains Western blots of 184A1 cells either untreated or treated with radiation (2-Gy of γ-radiation) and/or DIM (0.3 μM).
FIG. 8 contains a Western blot of subconfluent proliferating 184A1 human mammary epithelial cells exposed to DIM (0.3 μM) for different time intervals. Phosphorylated or total levels of ATM and of different DNA damage-response proteins were determined, as indicated.
Western blotting was performed. The primary antibodies were as follows: rabbit polyclonal anti-BRCA1 (sc-642, Santa Cruz); mouse monoclonal α-actin (sc-1616, Santa Cruz); anti-phospho-BRCA1 (S1387) [AB3257, Millipore (Billerica, Mass.)]; mouse monoclonal anti-ATM (sc-73615, Santa Cruz,); anti-phospho-ATM (S1981); anti-CHK2 (05-649, mouse monoclonal, Millipore); anti-phosph-CHK2 (T68) (ab32055, rabbit monoclonal, Abcam, Cambridge, Mass.); anti-p53 (ab2433, rabbit polyclonal, Abcam), and rabbit polyclonal anti-phospho-p53 (S15) (ab38497, Abcam).

[4] = tested on: non-homologous end joining; assay: DNA strand rejoining assay (linearized plasmid pEGFP-1, nuclear lysates); format: cell-based, human; conditions: 184A1 cells; inhibitor 10 μM
Method: FIGS. 11A and 11B show subconfluent proliferating 184A1 (FIG. 11A) or Hs578Bst (FIG. 11B) cells pre-treated±DIM (0.3 μM×24 hr); exposed to radiation (3-Gy) on ice; and subjected to neutral comet assays at different times post-irradiation. Values of % tail DNA are means±ranges of two determinations. […] At 24-hr after irradiation, cells were analyzed by flow cytometry for apoptosis, by measuring membrane redistribution of phosphatidylserine. The percentage of early and late apoptotic cells for non-irradiated control cells were: vehicle treated, 1.25% and 1.34%, and DIM-treated, 0.54% and 1.02%, respectively.
After the indicated cell treatment(s), nuclear lysates were prepared and aliquots of lysate (50 or 75 μg of nuclear protein) were tested for their ability to rejoin a plasmid (pEGFP-1, Clontech) that had been linearized using restriction enzyme SmaI. The reaction products were detected by Southern blotting, which was performed with a digoxigenin-labeled enhanced green fluorescent protein RNA probe. The percent rejoined plasmids […] was determined by densitometric quantification of the bands corresponding to rejoined and unrejoined plasmid.
Since ATM is known to have a major role in the repair of radiation-induced double-strand breaks (DSBs) of DNA, it was tested whether DIM could stimulate the repair of DSBs. The neutral comet assay is an electrophoretic method to measure DNA damage that reflects DSBs. The percent of tail DNA after irradiation reflects the number of DSBs. […] A DNA strand-rejoining assay based on the ability of cell nuclei to rejoin a linearized plasmid (pEGFP-1) was also performed, detected by Southern blotting. This assay reflects the process of non-homologous end joining (NEHJ).

CCOC(=O)C(O)(c1c(C)n(C)c2ccccc12)C(F)(F)F (stereo not drawn) [THW-5-85]
radiation protection relative to DIM [1]: strong levels of radiation protection similar to, slightly greater than, or slightly less than DIM
potency of survival enhancement relative to DIM [2]: at least as potent as DIM

COc1ccc2c(c1)[nH]c1c(C)c(OS(=O)(=O)c3cccc4c(N(C)C)cccc34)ccc12 [KED-4-69]
radiation protection relative to DIM [1]: strong levels of radiation protection similar to, slightly greater than, or slightly less than DIM

c1ccc2c(Cc3c[nH]c4ccccc34)c[nH]c2c1 [crystalline DIM, 3,3′-diindolylmethane]
radioprotection of cultured cells ([1]; ionizing radiation, clonogenic survival assays): work very well as radioprotectors

O=c1cc(-c2cccc3c2Sc2ccccc2S3)oc(N2CCOCC2)c1 [KU55933]
effect on DIM-induced phosphorylations of ATM, BRCA1 and CHK2 [3]: blocked
effect on DIM-induced strand-rejoining [4]: blocked DIM-induced strand-rejoining
